“And” between values parts separate entries of the source, which are not always exact repeats. Identical values can stand only once.
Columns and labels:
Format in all cases: in vivo
[1] = tested on: L1/L2 Liriomyza huidobriensis, leaf miner; assay: curative control of L1/L2 leaf miner within bean leaves; details: for % control, Alone: no BEEP; for % control, +BEEP: with 0.5% BEEP
From the text: The activity of a range of insecticides combined with 0.5% bis(2-ethylhexyl)-2-ethylhexyl phosphonate (BEEP) was compared with a corresponding formulation containing no bis(2-ethylhexyl)-2-ethylhexyl phosphonate in a test of curative control of L1/L2 Liriomyza huidobriensis, leaf miner. The results are set out in Table 1 and show % control of this leaf miner within bean leaves.

Aphis gossypii = assay: translaminar test (3 day assessment time) against Aphis gossypii; details: 0.5% BEOP, no insecticide
From the text: The activity of thiamethoxam as Actara 25WG with bis(2-ethylhexyl) octyl phosphonate (BEOP) at 0.5% was compared with Actara containing no bis(2-ethylhexyl) octyl phosphonate in a translaminar test (3 day assessment time) against Aphis gossypii. The results are set out in Table 4 and show % control.

Plutella xylostella = assay: feeding/contact test against Plutella xylostella; details: for % control, Alone: no BEEP; for % control, +BEEP: with 0.5% BEEP
From the text: The activity of lambda-cyhalothrin, profenofos and indoxacarb combined with 0.5% bis(2-ethylhexyl)-2-ethylhexyl phosphonate (BEEP) was compared with a corresponding formulation containing no bis(2-ethylhexyl)-2-ethylhexyl phosphonate in a feeding/contact test against Plutella xylostella. The results are set out in Table 2 and show % control.

R2 Myzus persicae = assay: translaminar test (3 day assessment time) against R2 Myzus persicae; details: 0.5% BEEP, no insecticide
From the text: The activity of lambda-cyhalothrin, as Karate 10CS with 0.5% bis(2-ethylhexyl)-2-ethylhexyl phosphonate (BEEP) was compared with a Karate 10CS containing no bis(2-ethylhexyl)-2-ethylhexyl phosphonate in a translaminar test (3 day assessment time) against R2 Myzus persicae. The results are set out in Table 3 and show % control.

## spinosad
[1]; 400 ppm
  % control, Alone: 42%
  % control, +BEEP: 100%
[1]; 600 ppm
  % control, Alone: 73%
  % control, +BEEP: 100%
[1]; 800 ppm
  % control, Alone: 82%
  % control, +BEEP: 100%
[1]; 1000 ppm
  % control, Alone: 81%
  % control, +BEEP: 100%

## Abamectin
[1]; 3.13 ppm
  % control, Alone: 27%
  % control, +BEEP: 99%
[1]; 6.25 ppm
  % control, Alone: 48%
  % control, +BEEP: 100%
[1]; 12.5 ppm
  % control, Alone: 74%
  % control, +BEEP: 100%
[1]; 25 ppm
  % control, Alone: 96%
  % control, +BEEP: 100%

## CCCCCCCCP(=O)(OCC(CC)CCCC)OCC(CC)CCCC (stereo not shown) [BEOP, bis(2-ethylhexyl) octyl phosphonate]
Aphis gossypii
  % control, Control +BEOP: 3%

## CN1COCN(Cc2cnc(Cl)s2)/C1=N\[N+](=O)[O-] [thiamethoxam]
[1]; 400 ppm
  % control, Alone: 0%
  % control, +BEEP: 20%
[1]; 600 ppm
  % control, Alone: 0%
  % control, +BEEP: 43%
[1]; 800 ppm
  % control, Alone: 0%
  % control, +BEEP: 63%
[1]; 1000 ppm
  % control, Alone: 12%
  % control, +BEEP: 68%

## N#Cc1nn(-c2c(Cl)cc(C(F)(F)F)cc2Cl)c(N)c1[S+]([O-])C(F)(F)F (stereo not shown) [Fipronil]
[1]; 400 ppm
  % control, Alone: 60%
  % control, +BEEP: 100%
[1]; 600 ppm
  % control, Alone: 69%
  % control, +BEEP: 100%
[1]; 800 ppm
  % control, Alone: 66%
  % control, +BEEP: 100%
[1]; 1000 ppm
  % control, Alone: 83%
  % control, +BEEP: 100%

## COC(=O)N(C(=O)N1CO[C@@]2(C(=O)OC)Cc3cc(Cl)ccc3C2=N1)c1ccc(OC(F)(F)F)cc1 [Indoxacarb]
Plutella xylostella; 0.16 ppm
  % control, Alone: 32%
  % control, +BEEP: 57%
Plutella xylostella; 0.31 ppm
  % control, Alone: 26%
  % control, +BEEP: 80%
Plutella xylostella; 0.63 ppm
  % control, Alone: 32%
  % control, +BEEP: 98%
Plutella xylostella; 1.25 ppm
  % control, Alone: 80%
  % control, +BEEP: 100%

## CCCCC(CC)COP(=O)(CC(CC)CCCC)OCC(CC)CCCC (stereo not shown) [BEEP, bis(2-ethylhexyl)-2-ethylhexyl phosphonate]
[1]; 0.5% BEEP, no insecticide
  % control, Control +BEEP: 0%
R2 Myzus persicae
  % control, Control +BEEP: 4%
Plutella xylostella; 0.5% BEEP, no insecticide
  % control, Control +BEEP: 11% and 20%

## CCOCn1c(-c2ccc(Cl)cc2)c(C#N)c(Br)c1C(F)(F)F [chlorfenpyr]
[1]; 400 ppm
  % control, Alone: 0%
  % control, +BEEP: 100%
[1]; 600 ppm
  % control, Alone: 15%
  % control, +BEEP: 100%
[1]; 800 ppm
  % control, Alone: 0%
  % control, +BEEP: 100%
[1]; 1000 ppm
  % control, Alone: 28%
  % control, +BEEP: 100%

## Nc1nc(N)nc(NC2CC2)n1 [cypromazine]
[1]; 25 ppm
  % control, Alone: 27%
  % control, +BEEP: 28%
[1]; 50 ppm
  % control, Alone: 57%
  % control, +BEEP: 83%
[1]; 100 ppm
  % control, Alone: 81%
  % control, +BEEP: 100%
[1]; 200 ppm
  % control, Alone: 100%
  % control, +BEEP: 100%

## CC1(C)[C@H](C(=O)O[C@H](C#N)c2cccc(Oc3ccccc3)c2)[C@@H]1/C=C(\Cl)C(F)(F)F (racemic) [Lambda-cyhalothrin]
Plutella xylostella; 0.31 ppm
  % control, Alone: 54%
  % control, +BEEP: 100%
Plutella xylostella; 0.63 ppm
  % control, Alone: 66%
  % control, +BEEP: 100%
Plutella xylostella; 1.25 ppm
  % control, Alone: 83%
  % control, +BEEP: 100%
Plutella xylostella; 2.5 ppm
  % control, Alone: 95%
  % control, +BEEP: 100%

## CCCSP(=O)(OCC)Oc1ccc(Br)cc1Cl (stereo not shown) [Profenofos]
Plutella xylostella; 12.5 ppm
  % control, Alone: 16%
  % control, +BEEP: 65%
Plutella xylostella; 25 ppm
  % control, Alone: 41%
  % control, +BEEP: 95%
Plutella xylostella; 50 ppm
  % control, Alone: 95%
  % control, +BEEP: 100%
Plutella xylostella; 100 ppm
  % control, Alone: 100%
  % control, +BEEP: 100%

Reference: patent publication US9138003B2, “Phosphonates and derivatives thereof as enhancers of the activity of insecticides” (Syngenta Crop Protection Inc., priority 2002, dated 2015)
